Assay results taken from US9592305B2, “Compositions of jasmonate compounds and methods of use” (Nanocare Technologies, Inc., priority 2011, dated 2017).

Columns and labels:
[1] = test system: chemically induced colon tumors; assay: Chemically (MNNG) induced colon tumors in mice: tumor size, PCNA, apoptotic index, CASPASE-3; type: in vivo, Balb/c mice
Method: The effect of cyclodextrin-carried MDJ made in Example 3 above was studied in an experimental model of colonic cancer in mice. Apoptosis and cell proliferation, the two most important events related to tumor growth were investigated. The apoptosis and proliferation indexes of colon tumor, adjacent non-cancer tissues and normal colonic tissues were determined. Apoptosis was quantified by apoptotic nuclei counting and CASPASE-3 immunostaining, whereas proliferation was determined by PCNA immunostaining.
The animals were maintained in agreement with the guidelines of Committee on Care and Uses of Laboratory Animals of the National Research Council of the National Institutes of Health (USA). The mice were fed with food and water ad libitum and maintained on hardwood bedding under a 12-h light/dark cycle. Animals were weighed weekly during the experiments. All experiments were approved by the USP Animal Ethics Committee.
(§1) Briefly, Balb/c mice were treated by intrarectal instillations of the carcinogen N-methyl-N′-nitro-N-nitrosoguanidine (MNNG), twice a week for 2 weeks (XX), and were sacrificed 24 weeks after the beginning of the treatment. Ten days before the end of the experiment, the animals of group A (n=10) were treated with daily i.p. injections of cyclodextrin-carried MDJ (10 μL of saline solution with 1 millimolar MDJ) for every 60 grams of body weight. The animals of group B (n=10) were treated by daily intrarectal instillations of cyclodextrin-carried MDJ, at the same dosage. The group C (n=10) was treated with MNNG and with daily i.p. injections of MDJ (diluted at 10% in 100 μL of saline). The animals of the group D were treated with MNNG and by daily intrarectal instillations of MDJ, at the same dosage. The control group E was treated with MNNG alone. The control groups F and G were treated with saline and cyclodextrin-carried MDJ, i.p. and i.r, respectively. The control groups H and I received saline and MDJ, i.p. and i.r, respectively. The dosages of cyclodextrin-carried MDJ and MDJ were based on previous animal pilot studies.
Colon tumor (T), adjacent non-tumor site (NT), macroscopically normal colonic mucosa from non-tumor […] (N) in the same treatment group were obtained. Immunohistochemistry was performed to study cell proliferation by the Proliferating cellular antigen (PCNA) staining and to analyze cell apoptosis by both the apoptotic bodies counting and by the CASPASE-3 staining. Results were expressed and PCNA labeling index (PCNA-Li), Apoptotic Index (AI) and CASPASE-3 Labeling Index (CASPASE-3-Li). Standard hematology and clinical chemistry parameters were also monitored.
Apoptosis was determined by apoptotic nuclei counting. Sections were stained with hematoxylin and eosin to evaluate the number of apoptotic cells per section. The criteria used to recognize apoptotic cells were: shrunk size, loss of contact with surrounding tissues (at times forming the classically described halo) and nuclear condensation as previously described (Yu et al., Gut 2002, 51:480-484). At least 1 000 cells were counted in five random fields and the percentage of cells with apoptotic features was then calculated (apoptotic index or AI). The apoptotic nuclei counts were compared with findings obtained by CASPASE-3 immunostaining in 30 randomly selected areas. A strong correlation between apoptotic nuclei count and CASPASE-3 results was found (r=0.83, P<0.001).
Proliferation was assayed by immunoperoxidase staining for Proliferating Cell Nuclear Antigen (PCNA) as described previously. Briefly, paraffin-embedded sections from each specimen were labeled with PCNA antibody, after microwave antigen retrieval in citrate buffer. Negative controls were run by replacing the primary antibody with non-immune serum. The slides were developed in 3,3-diaminobenzidine tetrahydrochloride (DAB, Dako, Denmark) and counter-stained with Mayer haematoxylin. […]

[2] = Toxicity observations in the MNNG colon tumor study (histopathology, hematology, clinical chemistry); settings: mouse, in vivo, ip
Method: as §1
Colon tumor (T), adjacent non-tumor site (NT), macroscopically normal colonic mucosa from non-tumor rats (N) in the same treatment group were obtained. […] Standard hematology and clinical chemistry parameters were also monitored.

[3] = test system: HUVEC; assay: MTT cytotoxicity and growth curves in endothelial cells; type: cell-based, human
[4] = test system: B16F10 murine melanoma cells; assay: MTT cytotoxicity and growth curves in murine melanoma cells; type: cell-based; settings: cultures of murine melanoma
[5] = test system: HUVEC; assay: Cell cycle by flow cytometry (propidium iodide, acridine orange) in HUVEC; type: cell-based, human
Method: FIG. 13: Effect of MDJ on the cell cycle in HUVEC after 18 h of exposure in vitro. The concentrations used in each test are shown in graphics measures cell cycle were performed on a BD FACScalibur equipment, after labeling with propidium iodide simple. The staining with acridine orange served as a control of the process of apoptosis.
(§2) Cell lines used: non-neoplastic cells derived from human umbilical cord endothelial (HUVEC) and neoplastic cells of melanoma, B16F10 murine tumor. The HUVECs were provided by Dra. Dulcinea Saes Parra Abdalla, Department of Clinical and Toxicological Analyses, FCF-USP's and B16F10 murine melanoma cells, by Prof. Marcia Cominetti Department of Physiology and Molecular Biology of UFSCar. Both strains were grown in RPMI with 10% fetal calf serum. […] The preliminary investigation of the effect on angiogenesis was also made in vitro with HUVEC. The measures were undertaken to study the cell cycle by flow cytometry (propidium iodide and acridine orange) the assessment of mitochondrial activity by confocal microscopy (Mitotracker Red), and measurement of VEGF and PGE2 production by HUVEC, we performed cell culture supernatants by ELISA with commercial antibodies.

[6] = test system: VEGF; assay: VEGF production by HUVEC, ELISA of culture supernatants; type: cell-based, human
Method: as §2

[7] = test system: PGE2; assay: PGE2 production by HUVEC, ELISA of culture supernatants; type: cell-based, human; settings: 1×10^4 cells/mL and 2×10^5 cells/mL plating
Method: as §2

[8] = test system: HUVEC; assay: Mitochondrial activity of endothelial cells, Mitotracker Red confocal microscopy; type: cell-based, human; settings: low-density plating
Method: FIGS. 15A-15F each show effect of MDJ on the mitochondrial activity of endothelial cells after 4 h of exposure in low-density plating on glass coverslips 25 mm in 24-well plates, as measured by Mitotracker red fluorescence confocal microscopy, increased 80× (40×+2× digital zoom). The calibration parameters were maintained for all measures. […] Concentrations equal to or greater than 1 mM lead to a decrease in the intensity/area of marking.
FIG. 16: Effect of MDJ on the mitochondrial activity of endothelial cells after 24 hours exposure in low-density plating on glass coverslips 25 mm in 24-well plates, as measured by Mitotracker Red fluorescence in confocal microscope, 40× magnification. The calibration parameters were maintained for all measurements, each point is the average of six independent measurements.
Cell lines used: non-neoplastic cells derived from human umbilical cord endothelial (HUVEC) and neoplastic cells of melanoma, B16F10 murine tumor. The HUVECs were provided by Dra. Dulcinea Saes Parra Abdalla, Department of Clinical and Toxicological Analyses, FCF-USP's and B16F10 murine melanoma cells, by Prof. Marcia Cominetti Department of Physiology and Molecular Biology of UFSCar. Both strains were grown in RPMI with 10% fetal calf serum. […] The preliminary investigation of the effect on angiogenesis was also made in vitro with HUVEC. […]

[9] = test system: CAM blood vessels; settings: in vivo
Method: For the tests with eggs, egg whites were used Gallus gallus incubated in a thermostated incubator at controlled temperature and humidity. The incubation was performed with and without eggs lying giragem. A mark on the upper surface of the bark was used to control this procedure. The eggs were opened on the fourth day of incubation, after careful cleaning of the skin with cotton wool soaked in 70% alcohol. The opening was performed in laminar flow, keeping all your eggs in the same position in which they were hatched, supported on a plastic holder and marked on the upper surface. The experimental procedure was adapted and refined for the project, drawing on the first half of the twentieth century. The description of the method developed
After the opening and closing of windows all eggs were replaced in the incubator, with the same initial conditions and maintained for a further seven days, typically. […]
After brief fixation, the hull was breached and the embryo inert placed on a petri dish. […] In each trial, the image was captured from the fund, kept the lighting and color adjustments in order to standardize the images of the analyzed material. […]
Each region of the same sample was imaged in bright field and dark field, for better observation of details. The growth of the vascular network was analyzed with the program Image J by processing the images in bright field binary images. […]

[10] = test system: B16F10 murine melanoma; assay: CAM model inoculated with B16F10 murine melanoma; type: in vivo
Method: After the opening and closing of windows all eggs were replaced in the incubator, with the same initial conditions and maintained for a further seven days, typically. In this interval procedures were carried out for tests of angiogenesis or for research on tumor growth in vivo. The observation of angiogenesis in eggs inoculated with tumor cells followed virtually the same test model of angiogenesis. Exposure to pure MDJ (cis/trans 96% pure from Sigma) or cyclodextrin-carried MDJ made in Example 3 above was performed on day 8, with the remaining eggs in the incubator until day 14. The inoculation with the melanoma cells was performed on day 4, eggs received MDJ pure or cyclodextrin-carried MDJ on the 8th day and remained incubated up to 14 days. During the development of the protocol, the time of inoculation and treatment were adjusted. Care during the collection and to obtain the images were standardized for all experiments.
The typical inoculum was 2×10^4 cells per egg, in a volume of culture medium less than […]. Melamona growth was accompanied by visual inspection of pigmented mass formation on the CAM, the magnifying glass and microscope. […]
Eggs used were measured by sampling and the average volume of 60 mL was maintained throughout the period of testing with a standard deviation below 10%. […] The tests of viability were monitored for up to 10 days. […]

[11] = Degradation in vivo (applicant's unpublished studies)

Structure (SMILES): CCCCCC1C(=O)CCC1CC(=O)OC (centres unmarked) [MDJ, methyl 2-(3-oxo-2-pentylcyclopentyl)acetate]
- cell proliferation and apoptosis in normal colonic mucosa and mucosa adjacent to tumors ([1]; MNNG-treated and non-MNNG animals): not associated to any significant changes in cell proliferation and apoptosis
- Apoptotic Index (Tumor) ([1]; MNNG-treated mice, daily i.r.): 0.29 ± 0.04
- Caspase-3-Li (tumor) ([1]; MNNG-treated mice, daily i.r.): 0.39 ± 0.11
- Tumor Size ([1]; MNNG-treated mice, daily i.r. instillation): 0.56 mm^2
- PCNA-Li ([1]; colonic tumors, MNNG-treated mice, daily i.r.): 0.41 ± 0.06
- effect on tumor markers ([1]; i.r. administration): mild, but significant reduction in the above tumor markers
- tolerability of i.p. injections (groups C and H discharged) [2]: early signs or peritonitis
- folding time (growth curves) ([3]; HUVEC, at concentrations below 1 mM): about 20 h
- concentrations at which MTT dye reduction (mitochondrial activity) was maintained at a constant value ([3]; confluent HUVEC): less than 1 mM
- toxicity (MTT, growth curves) compared with HUVEC [4]: toxic concentrations were very close
- Distribution according to the phases of the cell cycle,% (18 h): Dead cells ([5]; MDJ 1 nM): 13%
- Distribution according to the phases of the cell cycle,% (18 h): G0/G1 ([5]; MDJ 1 nM): 72%
- Distribution according to the phases of the cell cycle,% (18 h): G2/S ([5]; MDJ 1 nM): 15%
- Marking with Acridine Orange,% (18 h) ([5]; MDJ 1 nM): 6.2 ± 0.1%
- Distribution according to the phases of the cell cycle,% (18 h): Dead cells ([5]; MDJ 10 nM): 93%
- Distribution according to the phases of the cell cycle,% (18 h): G0/G1 ([5]; MDJ 10 nM): 5%
- Distribution according to the phases of the cell cycle,% (18 h): G2/S ([5]; MDJ 10 nM): 2%
- Marking with Acridine Orange,% (18 h) ([5]; MDJ 1 uM): 12 ± 0.9%
- Distribution according to the phases of the cell cycle,% (18 h): Dead cells ([5]; MDJ 10 uM): 7%
- Distribution according to the phases of the cell cycle,% (18 h): G0/G1 ([5]; MDJ 10 uM): 60%
- Distribution according to the phases of the cell cycle,% (18 h): G2/S ([5]; MDJ 10 uM): 33%
- Marking with Acridine Orange,% (18 h) ([5]; MDJ 10 uM): 9.0 ± 0.5%
- Distribution according to the phases of the cell cycle,% (18 h): Dead cells ([5]; MDJ 100 uM): 8%
- Distribution according to the phases of the cell cycle,% (18 h): G0/G1 ([5]; MDJ 100 uM): 56%
- Distribution according to the phases of the cell cycle,% (18 h): G2/S ([5]; MDJ 100 uM): 36%
- Marking with Acridine Orange,% (18 h) ([5]; MDJ 100 uM): 6.7 ± 0.3%
- VEGF, pg/mL (2 × 10^6 cells, 4 h) ([6]; MDJ 1 nM): 566 ± 31 pg/mL
- VEGF, pg/mL (2 × 10^6 cells, 4 h) ([6]; MDJ 10 uM): 319 ± 12 pg/mL
- VEGF, pg/mL (2 × 10^6 cells, 4 h) ([6]; MDJ 100 uM): 450 ± 30 pg/mL
- PGE2 production by HUVEC [7]: no increase in PGE2 production
- concentrations leading to a decrease in the intensity/area of Mitotracker red marking [8]: ≥ 1 mM
- tolerability in fertilized eggs [9]: well tolerated by the eggs
- melanoma bodies on CAM ([10]; CAM model): dose-dependent involution
- survival of eggs inoculated with melanoma cells ([10]; eggs with B16F10): partially recovered this survival
- degradation in vivo [11]: degraded very quickly in vivo
